This is an account of results in article PMC3367765 (Pflugers Archiv, 2012).

Read-outs that look alike come from different tables or passages of the source.

Test [1] concerns the target T1, Kvβ3 (Mus musculus, UniProt F6YMI4).
T1 sequence (F6YMI4 1-404): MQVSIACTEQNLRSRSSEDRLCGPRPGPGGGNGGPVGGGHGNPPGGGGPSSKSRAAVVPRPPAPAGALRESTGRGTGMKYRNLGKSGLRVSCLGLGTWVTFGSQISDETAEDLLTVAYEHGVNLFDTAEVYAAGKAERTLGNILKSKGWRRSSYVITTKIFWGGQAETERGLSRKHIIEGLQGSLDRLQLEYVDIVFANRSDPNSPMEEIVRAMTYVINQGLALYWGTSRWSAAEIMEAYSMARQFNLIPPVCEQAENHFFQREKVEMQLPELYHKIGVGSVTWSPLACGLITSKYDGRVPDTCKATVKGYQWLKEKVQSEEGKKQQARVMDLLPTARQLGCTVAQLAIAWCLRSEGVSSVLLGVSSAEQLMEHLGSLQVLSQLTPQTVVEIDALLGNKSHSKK
Nature of the test: fluorescence titration. It is filed as binding.

Test [2] concerns the target T2, Kvβ2 (AKR part, amino acid residues 39-367) (UniProt P62483 39-367).
T2 sequence (looked up): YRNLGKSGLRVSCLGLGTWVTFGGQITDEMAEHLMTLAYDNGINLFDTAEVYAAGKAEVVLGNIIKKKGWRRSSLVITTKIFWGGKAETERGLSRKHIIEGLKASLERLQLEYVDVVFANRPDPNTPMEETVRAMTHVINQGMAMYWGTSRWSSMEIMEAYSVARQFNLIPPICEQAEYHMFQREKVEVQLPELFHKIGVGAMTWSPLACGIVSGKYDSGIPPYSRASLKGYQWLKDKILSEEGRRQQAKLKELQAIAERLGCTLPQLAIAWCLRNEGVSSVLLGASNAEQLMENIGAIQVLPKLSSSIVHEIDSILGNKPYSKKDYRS
Kind of test: pull-down.

For test [3], the target named is T2, Kvβ2 (AKR part, amino acid residues …). Kind of test: pull-down. The source holds these as a separate data set.

For orientation: Kd means the equilibrium constant for the complex coming apart. High values mean a looser complex, low ones a tighter complex. `NC(=O)c1ccc[n+]([C@@H]2O[C@H](COP(=O)(O)OP(=O)(O)OC[C@H]3O[C@@H](n4cnc5c(N)ncnc54)[C@H](OP(=O)(O)O)[C@@H]3O)[C@@H](O)[C@H]2O)c1` [NADP^+] displayed a Kd in test [1] of 38 ± 9 µM. On the same count and under the same terms, the figure for `NC(=O)C1=CN([C@@H]2O[C@H](COP(=O)(O)OP(=O)(O)OC[C@H]3O[C@@H](n4cnc5c(N)ncnc54)[C@H](OP(=O)(O)O)[C@@H]3O)[C@@H](O)[C@H]2O)C=CC1` [NADPH] is 5.6 ± 0.26 µM.

B1: GST-C60 protein expressed from pDEST-26 vector (domain or fragment, rat, UniProt P19024 543-602, looked up)
chain: RKVSCSKASFCKTGGSLESSDSIRRGSCPLEKCHLKAKSNVDLRRSLYALCLDTSRETDL
For the molecule B1, the Kd in test [2] came out at 9.9 ± 1.7 µM; in test [3], 5.2 ± 0.8 µM.
